# Measured values: patent US20070088086A1, “Method of using synthetic L-Se-methylselenocysteine as a nutriceutical and a method of its synthesis” (PharmaSe, Incorporated, priority 1999, published 2007)
# Tests used:
# [1] = test system: pre-neoplastic and tumor cell lines; conditions: cited from earlier work
# [2] = test system: mammary tumors; conditions: 1 and 2 ppm in rats' diets; cited from earlier work
# [3] = Solubility of the obtained amino acid in solvents; format: physicochemical
# Text: It is contemplated that ion exchange chromatography may be used to purify the amino acid. It is also possible that, on a larger scale, L-Se-methylselenocysteine may be crystallized. […] Accordingly, ethanol may be one likely crystallization solvent.
# [4] = In vitro lucigenin chemiluminescence (CL) assay of superoxide generation in the presence of GSH
# Procedure: Methylseleninic acid (CH3SeOOH) was a dissolved in distilled water. Using a Rannin micropipette, aliquots were added directly to 1.0 ml of a buffered cocktail solution. The buffered cocktail solution was comprised of lucigenin (20 μg/ml), reduced glutathione (GSH) (4 mg/ml), and either sodium borate (0.05M) or sodium phosphate (0.05M), all purchased from Sigma Chemical Co. Two different buffered cocktail solutions were employed: the cocktail containing sodium borate was used for experiments at pH 9.2, which is optimum for the generation, detection and quenching of selenium catalyzed superoxide; and the cocktail containing sodium phosphate was used for experiments at pH 7.4, which is reflective of physiological conditions. One ml of the cocktail solution was added to a 10×50 mm polypropylene tube for use in the chemiluminescence (CL) assay. Chemiluminescence, using lucigenin as the detector of superoxide, was counted in repetitive integrated 30 second increments over time using a Los Alamos Diagnostics (Model 535) chemiluminometer, to which was attached a LKB Model 2209 circulating water bath that held the tube at 36° C. All chemical test assays and controls were performed by the addition of methylseleninic acid directly to the luminometer test tube in the counting chamber. Superoxide dismutase, SOD, purchased from Sigma Chemical Co., was added to the test tube prior to the addition of the methylseleninic acid and used to quench the chemiluminescent reactions.
# The complete chemiluminescence cocktail (containing buffer, lucigenin and GSH) produced very low, yet detectable amounts of background chemiluminescence at both a pH of 9.2 and 7.4. This was most likely due to the ambient spontaneous oxidation of GSH, but was not significant to the tests performed. […] Thus the chemiluminescence produced and quantitated in these assays can be attributable to the generation of superoxide. […] The chemiluminescence generated by selenoate catalysis may be used to quantitatively approximate the amount of catalytic selenium present.
# [5] = Acute toxicity in a mouse (FIG. 3); conditions: in vivo
# Procedure: FIG. 3 is a graphic comparison showing the acute toxicity of L-Se-methylselenocysteine in a mouse versus the acute toxicity of selenomethionine in rats.
# (§1) FIG. 1 illustrates a comparison between L-Se-methylselenocysteine and L-selenomethionine, and their effect on the growth of normal rabbit fibroblasts. Tests were performed at varying concentrations of L-Se-methylselenocysteine and L-selenomethionine over a three-day period. The amount of cellular growth, as measured by DNA synthesis, that could be stimulated by calf serum at the end of this period was assessed by the addition of tritiated thymidine.
# [6] = test system: human cancer cells; experiment: Toxicity to cancer cells, same protocol as normal cells (FIG. 2); format: cell-based; conditions: compared with selenomethionine
# Procedure: FIG. 2 is a graphic comparison showing that L-Se-methylselenocysteine is more toxic to human cancer cells than L-selenomethionine.
# as §1
# [7] = test system: normal rabbit fibroblasts; experiment: Growth of normal rabbit fibroblasts, DNA synthesis by tritiated thymidine (FIG. 1); format: cell-based; conditions: three-day period, compared with selenomethionine
# Procedure: FIG. 1 is a graphic comparison between L-Se-methylselenocysteine and L-selenomethionine and their effect on the growth of normal rabbit fibroblasts.
# as §1
# [8] = test system: lung, cholorectal and prostate cancer; conditions: dietary supplement up to 200 μg/Se/day more than that found in foods; cited from earlier work
# [9] = test system: colon carcinogenisis; conditions: dietary 1.0-2.0 ppm; cited from earlier work
# [10] = test system: rats; conditions: acute toxicity, reported (Spallholz, 1994); cited from earlier work
# [11] = selenol or thiol group; cited from earlier work
# [12] = test system: cells in culture; conditions: cited from earlier work
compound,measurement,setting,value
C[Se]C[C@H](N)C(=O)O (racemic) [Se-methylselenocysteine],"anticancer effects (cell morphology, cell number, DNA strand breaks)",[1],beneficial anticancer effects
same,appearance of palpable mammary tumors,[2],decreases the appearance of palpable mammary tumors
C[Se]C[C@H](N)C(=O)O [L-Se-methylselenocysteine],solubility,[3]; in ethanol,sparingly soluble
same,solubility,[3]; in methanol,fairly soluble
same,solubility,[3]; in water,soluble
same,superoxide generation / chemiluminescence in the in vitro CL assay,[4]; pH not stated,do not generate superoxide
same,LD50,[5],8 mg/kg
same,toxicity to cancer cells,[6],more toxic to cancer cells
same,"toxicity to normal cells (growth, DNA synthesis)",[7],less toxic to normal cells
C[Se]CC[C@H](N)C(=O)O [L-selenomethionine],cancer incidence in humans,[8],"reduce the incidence of lung, cholorectal and prostate cancer"
same,effect on the promotional stages of rat colon carcinogenisis,[9],inhibitory effect
same,superoxide generation / chemiluminescence in the in vitro CL assay,[4]; pH not stated,do not generate superoxide
same,LD50,[10],4.25 mg/kg
N[C@@H](CS)C(=O)O [cysteine],pKa,[11],8-9
"C[Se](=O)O [methylseleninic acid, Methylseleninic acid]",lowest level at which chemiluminescence (superoxide generation) could be detected,"[4]; FIG. 4, GSH reduction",0.56 nanomoles of selenium
same,quenching of chemiluminescence by SOD,"[4]; pH 7.4, 100 units of SOD",quenched most of the chemiluminescence activity
same,chemiluminescence,"[4]; pH 7.4, complete cocktail with GSH and lucigenin",produced chemiluminescence
same,quenching of chemiluminescence by SOD,"[4]; pH 9.2, 100 units of SOD added prior",quenched an initial burst of chemiluminescence activity
same,superoxide generation (chemiluminescence),"[4]; pH 9.2, complete cocktail with GSH and lucigenin",generated superoxide
same,chemiluminescence with lucigenin alone,"[4]; without GSH, pH 9.2 and 7.4",produced no additional chemiluminescence
same,chemiluminescence with GSH alone,"[4]; without lucigenin, pH 9.2 and 7.4",produced no additional chemiluminescence
C[SeH] [methylselenol],superoxide generation / chemiluminescence in the in vitro CL assay,[4]; pH not stated,very active redox compound producing superoxide
CS [methylthiol],quenching of chemiluminescence by SOD,[4]; pH not stated,SOD did not significantly quench the chemiluminescence
same,superoxide generation / chemiluminescence in the in vitro CL assay,[4]; pH not stated,only a fraction of the amount of chemiluminescence as compared to methylselenol
O=[Se](O)O [selenite],induction of apoptosis,[12],induces DNA ladders and apoptosis
N[C@@H](C[SeH])C(=O)O [selenocysteine],pKa,[11],5.25
